This note sets out measurements from patent US7718808B2, “Thiazole derivatives” (Kyowa Hakko Kirin Co., Ltd., priority 2003, dated 2010).

Molecules are shown by their SMILES.

For `O=C(Nc1nc(-c2ccco2)c(C(=O)C(F)(F)F)s1)c1ccncc1` [Compound 380, N-[4-(2-Furyl)-5-(trifluoroacetyl)thiazol-2-yl]pyridine-4-carboxamide], the melting point was 268 to 270 °C.

On to `CCC(=O)c1sc(NC(=O)c2ccncc2)nc1-c1ccco1` [Compound 381, N-[4-(2-Furyl)-5-propionylthiazol-2-yl]pyridine-4-carboxamide], for which the melting point was 225 to 240 °C (dec.).

Take `CCCC(=O)c1sc(NC(=O)c2ccncc2)nc1-c1ccco1` [Compound 382, N-[5-Butyryl-4-(2-furyl)thiazol-2-yl]pyridine-4-carboxamide]: the melting point lay within 191 to 194 °C.

Take `CCCC(=O)c1sc(NC(=O)C2CC2)nc1-c1ccco1` [Compound 385, N-[5-Butyryl-4-(2-furyl)thiazol-2-yl]cyclopropanecarboxamide]: the melting point is 170 to 172 °C.

`CC(C)C(=O)c1sc(N)nc1-c1ccco1` [Compound 392, 2-Amino-4-(2-furyl)thiazol-5-yl isopropyl ketone]: the melting point lay within 195 to 199 °C.

`CC(C)C(=O)c1sc(NC(=O)c2ccncc2)nc1-c1ccco1` [Compound 393, N-[4-(2-Furyl)-5-isobutyrylthiazol-2-yl]pyridine-4-carboxamide] had a melting point of 179 to 182 °C.

`CC(C)C(=O)c1sc(NC(=O)C2CC2)nc1-c1ccco1` [Compound 394, N-[4-(2-Furyl)-5-isobutyrylthiazol-2-yl]cyclopropane carboxamide] gave a melting point of 178 to 182 °C.

On to `CC(C)(C)C(=O)c1sc(NC(=O)c2ccncc2)nc1-c1ccco1` [Compound 400, N-[4-(2-Furyl)-5-pivaloylthiazol-2-yl]pyridine-4-carboxamide], for which the melting point was 240 to 245 °C.

As for `CC(C)(C)C(=O)c1sc(NC(=O)C2CC2)nc1-c1ccco1` [Compound 401, N-[4-(2-Furyl)-5-pivaloylthiazol-2-yl]cyclopropanecarboxamide], the melting point was 133 to 134 °C.

As to `COCC(=O)c1sc(NC(=O)c2ccc(Cl)nc2)nc1-c1ccco1` [Compound 404, 2-Chloro-N-[4-(2-furyl)-5-(methoxyacetyl)thiazol-2-yl]pyridine-5-carboxamide], the melting point was 174 to 183 °C.

Consider `COCC(=O)c1sc(NC(=O)c2ccc(F)cc2)nc1-c1ccco1` [Compound 405, 4-Fluoro-N-[4-(2-furyl)-5-(methoxyacetyl)thiazol-2-yl]benzamide], for which the melting point lay in the range of 166 to 167 °C.

The compound `COCC#CC(=O)c1sc(NC(=O)c2ccncc2)nc1-c1ccco1` [Compound 413, N-[4-(2-Furyl)-5-(3-methoxypropa-1-ynylcarbonyl)thiazol-2-yl]pyridine-4-carboxamide] yielded a melting point of 198 to 200 °C.

`O=C(Nc1nc(-c2ccco2)c(C(=O)C2CC2)s1)c1ccncc1` [Compound 417, N-[5-(Cyclopropylcarbonyl)-4-(2-furyl)thiazol-2-yl]pyridine-4-carboxamide]: the melting point is 225 to 230 °C (dec.).

For the compound `COc1ccccc1C(=O)Nc1nc(-c2ccco2)c(C(=O)C2CC2)s1` [Compound 420, N-[5-(Cyclopropylcarbonyl)-4-(2-furyl)thiazol-2-yl]-2-methoxybenzamide], the melting point fell in the range of 150 to 154 °C.

As to `Nc1nc(-c2ccco2)c(C(=O)C2CCC2)s1` [Compound 423, 2-Amino-4-(2-furyl)thiazol-5-yl cyclobutyl ketone], the melting point was 125 to 160 °C (dec.).

For the compound `O=C(Nc1nc(-c2ccco2)c(C(=O)C2CCC2)s1)c1ccncc1` [Compound 424, N-[5-(Cyclobutylcarbonyl)-4-(2-furyl)thiazol-2-yl]pyridine-4-carboxamide], the melting point was 227 to 235 °C (dec.).

On to `O=C(Nc1nc(-c2ccco2)c(C(=O)C2CCC2)s1)c1ccco1` [Compound 425, N-[5-(Cyclobutylcarbonyl)-4-(2-furyl)thiazol-2-yl]furan-2-carboxamide], for which the melting point lay in the range of 188 to 192 °C.

Take `N#Cc1ccc(C(=O)Nc2nc(-c3ccco3)c(C(=O)C3CCC3)s2)cc1` [Compound 426, 4-Cyano-N-[5-(cyclobutylcarbonyl)-4-(2-furyl)thiazol-2-yl]benzamide]: the melting point was in the range of 220 to 225 °C.

The compound `O=C(Nc1nc(-c2ccco2)c(C(=O)C2CCC2)s1)C1CC1` [Compound 427, N-[5-(Cyclobutylcarbonyl)-4-(2-furyl)thiazol-2-yl]cyclopropanecarboxamide] had a melting point of 200 to 205 °C.

With `O=C(Nc1nc(-c2ccco2)c(C(=O)C2CCCC2)s1)C1CC1` [Compound 434, N-[5-(Cyclopentylcarbonyl)-4-(2-furyl)thiazol-2-yl]cyclopropanecarboxamide], the melting point fell in the range of 182 to 187 °C.

In the case of `O=C(c1sc(NC(=O)N2CCOCC2)nc1-c1ccco1)C1CCCC1` [Compound 435, N-[5-(Cyclopentylcarbonyl)-4-(2-furyl)thiazol-2-yl]-morpholine-4-carboxamide], the melting point was 108 to 110 °C.

Compound `COC1CCC(C(=O)c2sc(NC(=O)c3ccncc3)nc2-c2ccco2)CC1` (stereo not shown) [Compound 442, N-[4-(2-Furyl)-5-(4-methoxycyclohexylcarbonyl)thiazol-2-yl]pyridine-4-carboxamide] returned a melting point of 180 to 187 °C.

As for `COC1CCC(C(=O)c2sc(NC(=O)c3ccc(C#N)cc3)nc2-c2ccco2)CC1` (stereo not shown) [Compound 443, 4-Cyano-N-[4-(2-furyl)-5-(4-methoxycyclohexylcarbonyl)thiazol-2-yl]benzamide], the melting point fell in the range of 105 to 109 °C.

The compound `O=C1CCC(C(=O)c2sc(NC(=O)c3ccncc3)nc2-c2ccco2)CC1` [Compound 448, N-[4-(2-Furyl)-5-(4-oxocyclohexylcarbonyl)thiazol-2-yl]pyridine-4-carboxamide] returned a melting point of 206 to 212 °C.

In the case of `Cc1cc(C(=O)Nc2nc(-c3ccco3)c(C(=O)C3CCC(=O)CC3)s2)ccn1` [Compound 449, N-[4-(2-Furyl)-5-(4-oxocyclohexylcarbonyl)thiazol-2-yl]-2-methylpyridine-4-carboxamide], the melting point was in the range of 108 to 115 °C.

`O=C1CCC(C(=O)c2sc(NC(=O)c3ccco3)nc2-c2ccco2)CC1` [Compound 450, N-[4-(2-Furyl)-5-(4-oxocyclohexylcarbonyl)thiazol-2-yl]furan-2-carboxamide] registered a melting point of 232 to 235 °C.

As for `COc1cccc(C(=O)Nc2nc(-c3ccco3)c(C(=O)C3CCC(=O)CC3)s2)c1` [Compound 451, N-[4-(2-Furyl)-5-(4-oxocyclohexylcarbonyl)thiazol-2-yl]-3-methoxybenzamide], the melting point was 176 to 183 °C.

Consider `N#Cc1ccc(C(=O)Nc2nc(-c3ccco3)c(C(=O)C3CCC(=O)CC3)s2)cc1` [Compound 452, 4-Cyano-N-[4-(2-furyl)-5-(4-oxocyclohexylcarbonyl)thiazol-2-yl]benzamide], for which the melting point fell in the range of 211 to 212 °C.

Compound `O=C(Nc1nc(-c2ccco2)c(C(=O)C2CCOCC2)s1)c1ccccc1` [Compound 457, N-[4-(2-Furyl)-5-(tetrahydropyran-4-ylcarbonyl)thiazol-2-yl]benzamide] displayed a melting point of 221 to 222 °C.

`Cc1ccccc1C(=O)Nc1nc(-c2ccco2)c(C(=O)C2CCOCC2)s1` [Compound 458, N-[4-(2-Furyl)-5-(tetrahydropyran-4-ylcarbonyl)thiazol-2-yl]-2-methylbenzamide] gave a melting point of 204 to 206 °C.

`Cc1cccc(C(=O)Nc2nc(-c3ccco3)c(C(=O)C3CCOCC3)s2)c1` [Compound 459, N-[4-(2-Furyl)-5-(tetrahydropyran-4-ylcarbonyl)thiazol-2-yl]-3-methylbenzamide] came in with a melting point of 197 to 201 °C.

Compound `Cc1ccc(C(=O)Nc2nc(-c3ccco3)c(C(=O)C3CCOCC3)s2)cc1` [Compound 460, N-[4-(2-Furyl)-5-(tetrahydropyran-4-ylcarbonyl)thiazol-2-yl]-4-methylbenzamide] yielded a melting point of 190 to 192 °C.

In turn, `COc1ccccc1C(=O)Nc1nc(-c2ccco2)c(C(=O)C2CCOCC2)s1` [Compound 461, N-[4-(2-Furyl)-5-(tetrahydropyran-4-ylcarbonyl)thiazol-2-yl]-2-methoxybenzamide] gave a melting point of 181 to 184 °C.

In the case of `COc1ccc(C(=O)Nc2nc(-c3ccco3)c(C(=O)C3CCOCC3)s2)cc1` [Compound 463, N-[4-(2-Furyl)-5-(tetrahydropyran-4-ylcarbonyl)thiazol-2-yl]-4-methoxybenzamide], the melting point lay in the range of 184 to 188 °C.

In turn, `CN(C)c1cccc(C(=O)Nc2nc(-c3ccco3)c(C(=O)C3CCOCC3)s2)c1` [Compound 464, 3-(Dimethylamino)-N-[4-(2-furyl)-5-(tetrahydropyran-4-ylcarbonyl)thiazol-2-yl]benzamide] showed a melting point of 239 to 243 °C.

Consider `CN(C)c1ccc(C(=O)Nc2nc(-c3ccco3)c(C(=O)C3CCOCC3)s2)cc1` [Compound 465, 4-(Dimethylamino)-N-[4-(2-furyl)-5-(tetrahydropyran-4-ylcarbonyl)thiazol-2-yl]benzamide], for which the melting point lay in the range of 238 to 240 °C.

For the compound `O=C(Nc1nc(-c2ccco2)c(C(=O)C2CCOCC2)s1)c1ccccc1F` [Compound 466, 2-Fluoro-N-[4-(2-furyl)-5-(tetrahydropyran-4-ylcarbonyl)thiazol-2-yl]benzamide], the melting point was 172 to 176 °C.

Take `O=C(Nc1nc(-c2ccco2)c(C(=O)C2CCOCC2)s1)c1cccc(F)c1` [Compound 467, 3-Fluoro-N-[4-(2-furyl)-5-(tetrahydropyran-4-ylcarbonyl)thiazol-2-yl]benzamide]: the melting point was 229 to 231 °C.

`O=C(Nc1nc(-c2ccco2)c(C(=O)C2CCOCC2)s1)c1ccccc1Cl` [Compound 469, 2-Chloro-N-[4-(2-furyl)-5-(tetrahydropyran-4-ylcarbonyl)thiazol-2-yl]benzamide] gave a melting point of 160 to 162 °C.

For `O=C(Nc1nc(-c2ccco2)c(C(=O)C2CCOCC2)s1)c1cccc(Cl)c1` [Compound 470, 3-Chloro-N-[4-(2-furyl)-5-(tetrahydropyran-4-ylcarbonyl)thiazol-2-yl]benzamide], the melting point fell in the range of 210 to 212 °C.

Broadly, the melting point is the temperature of the solid-liquid transition.
